Reference: patent US5504103A, “Inhibition of phosphatidylinositol 3-kinase with 17 β-hydroxywortmannin and analogs thereof” (Eli Lilly and Company, priority 1993, dated 1996)
Read-outs that look alike come from different tables or passages of the source.

Assays:
[1] = system: PI 4-kinase; test: Effect on PI 4-kinase; assay type: biochemical
[2] = target: bovine brain purified PI 3-kinase; test: Assay of purified PI 3-kinase activity (32P incorporation into phosphatidylinositol, TLC/scintillation); assay type: biochemical
Procedure: In another, preferred, method, PI 3-kinase was prepared from bovine brain. Two bovine brains (wet weight about 900 g) were obtained from a local slaughterhouse within minutes of slaughter, packed on ice, and homogenized within one hour. Brains were trimmed of excess fat and blood vessels and then homogenized using a Tekmar Tissuemizer (Cincinnati, Ohio) at 4° C. in 20 mM of Tris(pH 8.3) containing 250 mM of sucrose, 6 mM of β-mercaptoethanol, 1 μg/ml of leupeptin, 1 μg/ml of pepstatin A, 0.4 mM of PMSF, and 1 mM of MgCl2.
Following centrifugation for 60 minutes at 10,000×g, the pH of the supernatant (about 1200 mL) was lowered to 5.75 using dropwise addition of 1M acetic acid at 4° C. After stirring for an additional 15 minutes at 4° C., the solution was centrifuged for 60 minutes at 13,500×g. The supernatant was discarded. Pellets were resuspended in Buffer A (20 mM of Tris, pH 8.3, containing 6 mM of β-mercaptoethanol, 0.1 mM of ethylene glycol-bis(β-aminoethyl ether) N,N,N',N'-tetraacetic acid (EGTA), 1 μg/mL of leupeptin, 1 μg/mL of pepstatin A, and 1 mM of MgCl2), and loaded onto a Fast Flow Q Sepharose column (300 ml) at a flow rate of 5 mL/min at 4° C. […]
PI 3-kinase activity was measured as previously described by Matter, W. F., et al., Biochemical and Biophysical Research Communications, 186: 624-631 (1992). […]

COC[C@H]1OC(=O)c2coc3c2[C@@]1(C)C1=C(C3=O)[C@@H]2CC[C@H](O)[C@@]2(C)C[C@H]1OC(C)=O [17β-hydroxywortmannin] was tested, and the “effect on PI 4-kinase” value [1] was “no effect”, the IC50 [2] was 0.2 ng/mL and the IC50 ([2]; molar value printed in parentheses, read-out: IC50) was 0.46 nM.
